The record followed here is patent publication US8975410B2, “Crystal forms of 5-[3-(2,5-dichloro-4, 6-dimethyl-1-oxy-pyridine-3-yl)[1,2,4] oxadiazol-5-yl]-3-nitrobenzene-1,2-diol” (BIAL—Portela & CA., S.A., priority 2008, dated 2015).

Data set [1] is described as follows: interconversion experiments of the polymorphs. The following applies: for stability class of the polymorph: conclusion from interconversion experiments.
For data set [2] the following is noted: drying under vacuum at ambient temperature or at 60° C.
The conditions of data set [3]: about 5% to about 95% relative humidity at 25° C. over a period of 3 months.

On to `Cc1c(Cl)c(C)[n+]([O-])c(Cl)c1-c1noc(-c2cc(O)c(O)c([N+](=O)[O-])c2)n1` [polymorph E, 5-[3-(2,5-dichloro-4,6-dimethyl-1-oxy-pyridin-3-yl)-[1,2,4]oxadiazol-5-yl]-3-nitrobenzene-1,2-diol], for which the “polymorphic conversion in interconversion experiments” value in data set [1] is on record as “convert into polymorph A or B”. In addition, the “polymorph produced on drying” value in data set [2] was “produced polymorph A”.
With `Cc1c(Cl)c(C)[n+]([O-])c(Cl)c1-c1noc(-c2cc(O)c(O)c([N+](=O)[O-])c2)n1` [polymorph B, 5-[3-(2,5-dichloro-4,6-dimethyl-1-oxy-pyridin-3-yl)-[1,2,4]oxadiazol-5-yl]-3-nitrobenzene-1,2-diol], in data set [1], the “stability class of the polymorph” value is “kinetically stable polymorphs”. The “polymorphic conversion when slurried in water” value in data set [1] (slurried in water containing crystal seeds of modification A over prolonged periods of time) is reported as “converts into polymorph A”.
Take `Cc1c(Cl)c(C)[n+]([O-])c(Cl)c1-c1noc(-c2cc(O)c(O)c([N+](=O)[O-])c2)n1` [polymorph A, 5-[3-(2,5-dichloro-4,6-dimethyl-1-oxy-pyridin-3-yl)-[1,2,4]oxadiazol-5-yl]-3-nitrobenzene-1,2-diol]: in data set [1], the “stability class of the polymorph” value is reported as “thermodynamically stable polymorph”. Further, in data set [3], the hygroscopicity result is listed as “non-hygroscopic”.
As for `Cc1c(Cl)c(C)[n+]([O-])c(Cl)c1-c1noc(-c2cc(O)c(O)c([N+](=O)[O-])c2)n1` [polymorph D, 5-[3-(2,5-dichloro-4,6-dimethyl-1-oxy-pyridin-3-yl)-[1,2,4]oxadiazol-5-yl]-3-nitrobenzene-1,2-diol], the “polymorphic conversion in interconversion experiments” value in data set [1] was “convert into polymorph A or B”.
As for `Cc1c(Cl)c(C)[n+]([O-])c(Cl)c1-c1noc(-c2cc(O)c(O)c([N+](=O)[O-])c2)n1` [polymorph C, 5-[3-(2,5-dichloro-4,6-dimethyl-1-oxy-pyridin-3-yl)-[1,2,4]oxadiazol-5-yl]-3-nitrobenzene-1,2-diol], the “polymorphic conversion in interconversion experiments” value in data set [1] is recorded as “convert into polymorph A or B”. Besides, in data set [2], the “polymorph produced on drying” value was “produced polymorph B”.
`Cc1c(Cl)c(C)[n+]([O-])c(Cl)c1-c1noc(-c2cc(O)c(O)c([N+](=O)[O-])c2)n1` [polymorph F, 5-[3-(2,5-dichloro-4,6-dimethyl-1-oxy-pyridin-3-yl)-[1,2,4]oxadiazol-5-yl]-3-nitrobenzene-1,2-diol]: the “polymorphic conversion in interconversion experiments” value in data set [1] is given as “convert into polymorph A or B”.
